In the assay the test system is 6-OHDA rat model. Put plainly: Hemi-parkinsonian (6-OHDA lesioned) rat model: prolongation of L-DOPA-induced contralateral rotations. The settings on record: second hour post administration (61-120 min); L-DOPA 50 mg/kg i.p. with vehicle (DMSO, i.p.); male Sprague-Dawley rats.

On to `N[C@@H](Cc1ccc(O)c(O)c1)C(=O)O` [L-Dopa, L-3,4-dihydroxyphenylalanine], for which the “total number of rotations observed with L-Dopa alone” value is on record as “less than 50 turns”.

The record behind these values is US8293775B2, “Benzoxazolone derivatives, processes for preparing them and their uses” (UCB Pharma, S.A., priority 2004, dated 2012).
